# Tested on: flexor reflex in normal anesthetized rats
# Test: Flexor reflex in normal anesthetized rats (FIG. 3)
# Assay type: in vivo, rat
# Settings: in comparison to baclofen, FIG. 3 legend only, values not given
# Excerpt: Baclofen, diazepam (Valium), and tizanidine are effective on different parameters of spasticity (EMG recordings, H-reflex, the H/M ratio, mono- and polysynaptic reflexes, clonus, hyperreflexia) in these models. The flexor reflex is a polysynaptic response elicited by stimulation of the bottom of the foot and models the withdrawal reflex.
compound,measurement,value
"NC(=O)CC(c1cccc(F)c1)c1cccc(F)c1 [Compound 1, 3,3-bis(3-fluorophenyl)propanamide]",reduction in the flexor reflex,reduction in the flexor reflex
